Reference: patent US20250066366A1, “Crystal form of isobutyrate nucleoside compound, and preparation method” (Shenzhen AntiV Pharma Co., Ltd., priority 2021, published 2025)
Converted amounts (≈) assume the structure as drawn. Read-outs that look alike come from different tables or passages of the source. Marks after values point to notes of the source that are not given here.

Legend:
Type in all cases: physicochemical
[1] = Solid state stability test (XRPD and HPLC); settings: for Purity-1 week (Peak area %): HPLC, initial purity 99.71%; for Crystal-1 week: XRPD
Excerpt: (§1) X-ray powder diffraction patterns were collected on a PANalytical Empyrean X-ray diffractometer of the Netherlands equipped with a transmission-reflection sample stage with an automated 3*15 zero background sample holder. The radiation source used was (Cu, kα, Kα1 (Å): 1.540598; Kα2 (Å): 1.544426; Kα2/Kα1 intensity ratio: 0.50), wherein the voltage was set at 45 KV and the current was set at 40 mA. The beam divergence of the X-rays, i.e. the effective size of the X-ray confinement on the sample, was 6.6 mm. The continuous scanning mode of θ-θ was adopted, and an effective 2θ range of 3° to 40° was obtained. A proper amount of sample was placed at the position of the circular groove of the zero-background sample rack under the environmental condition (about 18° C. to 32° C.), the sample was lightly pressed with a clean glass slide to obtain a flat plane, and the zero-background sample rack was fixed. The samples were scanned at a scan step of 0.013° in the range of 3° to 40° 2θ±0.2° to obtain a traditional X-ray powder diffraction pattern.
The instrument used for liquid chromatography analysis is Agilent HPLC 1260 series, which is used for the analysis of solid-state stability of samples.
A certain amount of crystalline form III of compound A as a sample was placed under conditions of 40° C./75% RH (open) and 60° C. (closed) for one week, and XRPD and HPLC of the sample were tested.

[2] = Grinding experiment of crystalline form III (XRPD after manual grinding); settings: ground manually with mortar and pestle for 5 minutes
Excerpt: as §1
Crystalline form III was ground manually with a mortar and pestle for 5 minutes, and XRPD of the ground solid was tested.

[3] = Solubility test in biological media (SGF, FaSSIF, FeSSIF) and water at 37° C.; settings: for pH (24 h): solution pH after 24 h; for solubility at 0.5 h: read-out: Solubility (mg/mL) 0.5 h; for solubility at 2 h: read-out: Solubility (mg/mL) 2 h; for solubility at 24 h: read-out: Solubility (mg/mL) 24 h
Procedure: Crystalline form III has the highest solubility in SGF (>7 mg/mL). The solubility in pure water, FeSSIF, and FaSSIF were all greater than 1 mg/mL.

[4] = Dynamic water vapor adsorption detection of crystalline form III

Purity-1 week (Peak area %) ([1]; 40° C./75% RH, open, listed as Sample 1): 99.68%
Purity-1 week (Peak area %) ([1]; 40° C./75% RH, open, listed as Sample 2): 99.71%
Crystal-1 week ([1]; 40° C./75% RH, open): No change
Purity-1 week (Peak area %) ([1]; 60° C. & closed, listed as Sample 1): 99.71%
Purity-1 week (Peak area %) ([1]; 60° C. & closed, listed as Sample 2): 99.65%
Crystal-1 week ([1]; 60° C. & closed): No change
physical and chemical stability ([1]; two acceleration conditions (40° C./75% RH open, 60° C. closed) for 14 days): physically and chemically stable
crystalline structure after grinding (XRPD) [2]: did not change
pH (24 h) ([3]; FaSSIF (pH = 6.53)): 6.50
pH (24 h) ([3]; FeSSIF (pH = 4.97)): 4.96
Solubility (mg/mL) ([3]; SGF (pH = 1.20), 0.5 h, 2 h, 24 h, visual observation): >7* mg/mL
pH (24 h) ([3]; SGF (pH = 1.20)): 1.37
change in solution pH after the solubility test ([3]; SGF, FaSSIF, FeSSIF and water): no significant change
pH (24 h) ([3]; Water (pH = 6.67)): 6.43
solubility ([3]; pH 1.2, simulated gastric fluid, thermodynamic from solid, SGF (pH = 1.20), 0.5 h, 2 h, 24 h, visual observation): > 7000 µg/mL
solubility ([3]; pH 4.97, thermodynamic from solid, FeSSIF): > 1000 µg/mL
solubility ([3]; pH 6.53, thermodynamic from solid, FaSSIF): > 1000 µg/mL
solubility ([3]; pH 6.67, thermodynamic from solid, pure water): > 1000 µg/mL
XRPD (24 h) ([3]; solid after 24 h in FaSSIF (pH = 6.53)): Crystalline
XRPD (24 h) ([3]; solid after 24 h in FeSSIF (pH = 4.97)): Crystalline
XRPD (24 h) ([3]; solid after 24 h in Water (pH = 6.67)): Crystalline
solubility at 0.5 h ([3]; thermodynamic from solid, FaSSIF (pH = 6.53), 0.5 h): 1.22 mg/mL (≈ 3.38 mM)
solubility at 2 h ([3]; thermodynamic from solid, FaSSIF (pH = 6.53), 2 h): 1.26 mg/mL (≈ 3.49 mM)
solubility at 24 h ([3]; thermodynamic from solid, FaSSIF (pH = 6.53), 24 h): 1.19 mg/mL (≈ 3.29 mM)
solubility at 0.5 h ([3]; thermodynamic from solid, FeSSIF (pH = 4.97), 0.5 h): 1.63 mg/mL (≈ 4.51 mM)
solubility at 2 h ([3]; thermodynamic from solid, FeSSIF (pH = 4.97), 2 h): 1.66 mg/mL (≈ 4.59 mM)
solubility at 24 h ([3]; thermodynamic from solid, FeSSIF (pH = 4.97), 24 h): 1.68 mg/mL (≈ 4.65 mM)
solubility at 0.5 h ([3]; thermodynamic from solid, Water (pH = 6.67), 0.5 h): 1.11 mg/mL (≈ 3.07 mM)
solubility at 2 h ([3]; thermodynamic from solid, Water (pH = 6.67), 2 h): 1.22 mg/mL (≈ 3.38 mM)
solubility at 24 h ([3]; thermodynamic from solid, Water (pH = 6.67), 24 h): 1.24 mg/mL (≈ 3.43 mM)
weight gain ([4]; 80% RH and 25° C.): less than 0.2%
crystalline form after testing ([4]; after dynamic water vapor adsorption test): did not change
hygroscopicity ([4]; dynamic water vapor adsorption test): does not have hygroscopicity
Structure (SMILES): CC(C)C(=O)OC[C@H]1O[C@@](C#N)(c2ccc3c(N)ncnn23)[C@H](O)[C@@H]1O [crystalline form III, ((2R,3S,4R,5R)-5-(4-aminopyrrolo[2,1-f][1,2,4]triazin-7-yl)-5-cyano-3,4-dihydroxytetrahydrofuran-2-yl) methyl isobutyrate]
